Consider one compound from patent publication US5552389A, “Suppressory compositions against hepatic metastases of tumors” (Senju Pharmaceutical Co., Ltd., priority 1994, dated 1996).

Where a name gives a salt, the structure may show the parent alone. Some results are limits rather than exact numbers.

The nature of data set [1]: Acute toxicity (LD50) in rats. The note with it: rat, in vivo.
Data set [2] deals with liver lipid peroxide (LPO). Briefly: Level of liver lipid peroxide (LPO, TBA method) after surgical invasion (laparothoractomy) in rats. The note with it: 5 mg/kg i.v. an hour before surgical invasion (laparothoractomy); 24 hours later; elevation significantly suppressed, p<0.05 (Mann-Whitney U). In kind it is in vivo, Male Donryu rats. The method, then:
(§1) Using a model of hepatic metastasis of tumor, an experiment was conducted to determine a correlation of hepatic metastasis of tumor with a level of liver lipid peroxide (LPO). In addition, an experiment was effected on the Present Compound in terms of its suppressory effect of liver lipid peroxide (LPO) and suppressory effect on hepatic metastasis of tumor.
(§2) Male Donryu rats (ca. 10-weeks aged) were employed as an experimental animal, while AH60C cells (derived from rat hepatoma) were used as a tumor cell. The rats were divided into three groups, namely a laparothoractomy group (Group LT) undergoing intratracheal intubation, followed by thoraco-laparotomy for one hour, a laparotomy group (Group L) undergoing only laparotomy for one hour and a control group (Group C) undergoing laparotomy, followed by immediate closure of the abdomen. The rats were subjected to laparotomy under anesthesia with ether and Ketalar and given 5×10^5 of AH60C cells through the portal vein to inflict surgical invasion, followed by laparotomy three weeks later to determine the number of tumor nodules on the liver surface. In addition to this, the serum samples were drawn, while the liver and lung tissues were isolated, on Disease Days 1. 2 and 3 to determine their respective levels of lipid peroxide by the TBA method. […]

Another data set has as its system AH60C cells. Put plainly: Number of tumor nodules on the liver surface in the AH60C hepatic metastasis model in rats. It is filed as in vivo, Male Donryu rats; AH60C cells derived from rat hepatoma. The note with it: 5 mg/kg i.v. an hour before surgical invasion (laparothoractomy); 5×10^5 AH60C cells via portal vein; 3 weeks later; Group C (not treated) 27.2±30.0; p<0.01 (Mann-Whitney U). The protocol:
as §1, §2

As a reminder, the LD50 is the dose at which mortality reaches 50%. In the case of `Cc1c(C)c2c(c(C)c1OP(=O)(O)OC1=C(O)[C@@H]([C@@H](O)CO)OC1=O)CCC(C)(CCCC(C)CCCC(C)CCCC(C)C)O2` (mixture of isomers) [EPC-K, potassium salt of a phosphoric acid diester of L-ascorbic acid and DL-α-tocopherol], the results for the LD50 in data set [1] (iv) and in data set [1] (po) were at least 100 mg/kg and 5000 mg/kg, respectively. In addition, the “level of liver lipid peroxide (LPO)” value in data set [2] was determined as 18.9 ± 17.9 nmol/g. Further, the “number of tumor nodules on the liver surface” value in the data set with AH60C cells is 8.9±12.7.
